In brackets after ≈: the same amount, converted by molar mass. Structures can show the parent of a compound that is named as a salt. One block for each compound: values may come before it.
Tests used:
[1] = Solubility of insoluble drugs in F96 LMBW vehicle (Example 4); format: physicochemical; conditions: for solubility: aqueous with cosolvent or surfactant or cyclodextrin, thermodynamic from solid
Text: Twenty-two (22) insoluble drugs having a wide variety of chemical structures (including chemical element, small molecule, peptide and protein), properties and biological activities (including drugs, diagnostic agents and nutritional supplement agents) were selected and tested for solubility in F96 LMBW vehicle as follows: • 1. Measure out a fixed amount of F96 vehicle. • 2. Add a known amount of an insoluble drug substance. • 3. Mix to dissolve the drug substance. • 4. […] Record the maximum amount of the insoluble drug substance that the F96 LMBW vehicle could dissolve and use this value to calculate the drug's solubility in the F96 LMBW vehicle.

[2] = cited from earlier work; for Solubility according to USP definition: in water
[3] = Solubility of insoluble drugs in 16% SBECD aqueous solution (Example 27); conditions: for solubility: 16% SBECD aqueous solution, aqueous with cosolvent or surfactant or cyclodextrin, thermodynamic from solid; for Measured solubility in 16% SBECD: 16% sulfobutyl ether beta cyclodextrin aqueous solution
Text: Add a known amount of an insoluble drug substance. • 3. Mix to dissolve the drug substance. • 4.

[4] = Solubility of disease-related insoluble solids in LMBW vehicle and PBS (Example 29); format: physicochemical; conditions: for solubility: thermodynamic from solid
Text: These solids have very low solubility in the body fluids and therefore they have a high tendency to precipitate and to form the undesirable solid deposits in vivo. […] Weigh out a fixed amount of a solid of interest, • 2. […] Mix to dissolve the solid, • 4. If the solid has completely dissolved, add more until it is no longer dissolving in the vehicle • 5.

[5] = Voriconazole solubility in LMBW versus binary/ternary mixtures of L, M, B and alcohol (Example 2); format: physicochemical; conditions: thermodynamic from solid
Experimental: For this study, voriconazole was used as the insoluble drug.
To determine solubility in each combination, voriconazole was added to each combination and mixed until it no longer would dissolve. For each mixture, the pH was adjusted to pH 4.5-5, equilibrated at room temperature, and then passed through a 0.2-micron filter. The filtrate was analyzed by HPLC for voriconazole concentration. Each HPLC-determined voriconazole concentration is noted as a “Voriconazole solubility” in the tables below.

[6] = Voriconazole stability versus pH and predicted F96 shelf life T90 (separate study); format: physicochemical
physchem = conditions: for Appearance of the undiluted solutions / Appearance of the solutions after being diluted in an IV infusion fluid: RT, 24 hours; for Appearance of the solutions after being diluted in an IV infusion fluid: diluted to about 0.5 to 5 mg/mL
Experimental: Different amounts of voriconazole (20 to 60 mg/mL) were first dissolved in F145V and subsequently diluted in an IV infusion fluid, such as normal saline (NS), 5% dextrose in water (D5W), water for injection (WFI), or Lactated Ringers solution, to a final voriconazole concentration of about 0.5 to 5 mg/mL.

solubility [1]: 2400 µg/mL (≈ 2.6 mM)
solubility [3]: 70 µg/mL (≈ 0.0758 mM)
Compound: C[C@@H]1[C@H](O)[C@@H](C)/C=C/C=C/C=C/C=C/C=C/C=C/C=C/[C@H](O[C@@H]2O[C@H](C)[C@@H](O)[C@H](N)[C@@H]2O)C[C@@H]2O[C@](O)(C[C@@H](O)C[C@@H](O)[C@H](O)CC[C@@H](O)C[C@@H](O)CC(=O)O[C@H]1C)C[C@H](O)[C@H]2C(=O)O [Amphotericin]
Solubility according to USP definition [2]: Insoluble
Reported solubility in water ([2]; water): <0.0001 mg/mL

solubility [1]: 12700 µg/mL (≈ 23.8 mM)
solubility [3]: 150 µg/mL (≈ 0.281 mM)
Compound: C[C@@H](O[C@H]1OCCN(Cc2n[nH]c(=O)[nH]2)[C@H]1c1ccc(F)cc1)c1cc(C(F)(F)F)cc(C(F)(F)F)c1 [Aprepitant]
Solubility according to USP definition [2]: Practically
Reported solubility in water ([2]; water): <0.0001 mg/mL

Compound: CC[C@@]1(O)C(=O)OCc2c1cc1n(c2=O)Cc2cc3ccccc3nc2-1 [Camptothecin]
solubility [1]: 500 to 1000 µg/mL (≈ 1.44 to 2.87 mM)
Solubility according to USP definition [2]: Insoluble
Reported solubility in water ([2]; water): <0.0001 mg/mL
solubility [3]: 60 µg/mL (≈ 0.172 mM)

solubility [1]: 7300 µg/mL (≈ 19.1 mM)
solubility [3]: 1030 µg/mL (≈ 2.7 mM)
Compound: Cc1ccc(-c2cc(C(F)(F)F)nn2-c2ccc(S(N)(=O)=O)cc2)cc1 [Celecoxib]
Solubility according to USP definition [2]: Very poorly
Reported solubility in water ([2]; water): 0.001-0.0001 mg/mL

solubility ([4]; F96 LMBW vehicle, aqueous with cosolvent or surfactant or cyclodextrin, vehicle at pH 7): 25000 µg/mL (≈ 64.7 mM)
solubility ([4]; phosphate buffered saline, aqueous buffer, read-out: Solubility in PBS): 50 µg/mL (≈ 0.129 mM)
Compound: CC(C)CCC[C@@H](C)[C@H]1CC[C@H]2[C@@H]3CC=C4C[C@@H](O)CC[C@]4(C)[C@H]3CC[C@]12C [Cholesterol]

solubility [1]: 9100 µg/mL (≈ 12.2 mM)
solubility [3]: 1710 µg/mL (≈ 2.29 mM)
Compound: CC[C@H]1OC(=O)[C@H](C)[C@@H](O[C@H]2C[C@@](C)(OC)[C@@H](O)[C@H](C)O2)[C@H](C)[C@@H](O[C@@H]2O[C@H](C)C[C@H](N(C)C)[C@H]2O)[C@](C)(OC)C[C@@H](C)C(=O)[C@H](C)[C@@H](O)[C@]1(C)O [Clarithromycin]
Solubility according to USP definition [2]: Practically
Reported solubility in water ([2]; water): <0.0001 mg/mL

solubility [1]: 53100 µg/mL (≈ 257 mM)
solubility [3]: 3580 µg/mL (≈ 17.4 mM)
Compound: CC(C)Cc1ccc(C(C)C(=O)O)cc1 (centres unmarked) [Ibuprofen]
Solubility according to USP definition [2]: Sparingly

Compound: CCC(C)n1ncn(-c2ccc(N3CCN(c4ccc(OCC5COC(Cn6cncn6)(c6ccc(Cl)cc6Cl)O5)cc4)CC3)cc2)c1=O (centres unmarked) [Intraconazole]
Measured solubility in F96 LMBW Vehicle ([1]; stepwise addition until no longer dissolving): 500 to 1000 µg/mL
Solubility according to USP definition [2]: Insoluble
Reported solubility in water ([2]; water): <0.0001 mg/mL
Measured solubility in 16% SBECD [3]: 170 µg/mL

solubility [1]: 20400 µg/mL
solubility [3]: 2120 µg/mL
Compound: CCc1c2c(nc3ccc(OC(=O)N4CCC(N5CCCCC5)CC4)cc13)-c1cc3c(c(=O)n1C2)COC(=O)[C@]3(O)CC [Irinotecan HCl]
Solubility according to USP definition [2]: Insoluble
Reported solubility in water ([2]; water): <0.0001 mg/mL

solubility [1]: 10000 µg/mL (≈ 50.7 mM)
solubility [3]: 2130 µg/mL (≈ 10.8 mM)
Compound: N[C@@H](Cc1ccc(O)c(O)c1)C(=O)O [Levodopa]
Solubility according to USP definition [2]: Slightly soluble (100-1000)

Compound: O=c1[nH]c(=O)c2[nH]c([O-])nc2[nH]1.[Na+] [Mono sodium urate]
Solubility in PBS ([4]; phosphate buffered saline): <1 µg/mL
Measured solubility in F96 LMBW Vehicle ([4]; vehicle at pH 7): 50 µg/mL

Compound: CC(=O)O[C@H]1C(=O)[C@@]2(C)[C@H]([C@H](OC(=O)c3ccccc3)[C@]3(O)C[C@H](OC(=O)[C@H](O)[C@@H](NC(=O)c4ccccc4)c4ccccc4)C(C)=C1C3(C)C)[C@]1(OC(C)=O)CO[C@@H]1C[C@@H]2O [Paclitaxel]
Solubility according to USP definition [2]: Insoluble
Reported solubility in water ([2]; water): <0.0001 mg/mL

solubility [1]: 28200 µg/mL (≈ 62.6 mM)
solubility [3]: 150 µg/mL (≈ 0.333 mM)
Compound: CC1=C(C/C=C(\C)CCC[C@H](C)CCC[C@H](C)CCCC(C)C)C(=O)c2ccccc2C1=O [Phytonadione]
Solubility according to USP definition [2]: Insoluble
Reported solubility in water ([2]; water): <0.0001 mg/mL

solubility [1]: 500 µg/mL (≈ 0.713 mM)
solubility [3]: 270 µg/mL (≈ 0.385 mM)
Compound: CC[C@@H]([C@H](C)O)n1ncn(-c2ccc(N3CCN(c4ccc(OC[C@@H]5CO[C@@](Cn6cncn6)(c6ccc(F)cc6F)C5)cc4)CC3)cc2)c1=O [Posaconazole]
Solubility according to USP definition [2]: Insoluble
Reported solubility in water ([2]; water): <0.0001 mg/mL

solubility [1]: 12000 µg/mL (≈ 38.2 mM)
solubility [3]: 4060 µg/mL (≈ 12.9 mM)
Compound: CC(=O)[C@H]1CC[C@H]2[C@@H]3CCC4=CC(=O)CC[C@]4(C)[C@H]3CC[C@]12C [Progesterone]
Solubility according to USP definition [2]: Sparingly
Reported solubility in water ([2]; water): 0.017 mg/mL

Compound: CC(C)c1cccc(C(C)C)c1O [Propofol]
solubility [1]: 50800 µg/mL (≈ 285 mM)
Solubility according to USP definition [2]: Insoluble
Reported solubility in water ([2]; water): <0.0001 mg/mL
solubility [3]: 56600 µg/mL (≈ 317 mM)

solubility [1]: 9000 µg/mL (≈ 39.4 mM)
solubility [3]: 4850 µg/mL (≈ 21.2 mM)
Compound: Oc1ccc(C=Cc2cc(O)cc(O)c2)cc1 [Resveratrol]
Solubility according to USP definition [2]: Insoluble
Reported solubility in water ([2]; water): <0.0001 mg/mL

solubility ([5]; LMBW (lecithin, MCT, bile acid, alcohols in water), pH 4.5, aqueous with cosolvent or surfactant or cyclodextrin): 29400 µg/mL
solubility ([5]; MCT and alcohols in water), aqueous with cosolvent or surfactant or cyclodextrin, vehicle % wt in water: glycocholic acid 10.6, MCT 15, benzyl alcohol 4.5, ethanol 6.5, emulsion, opaque, pH 4.5-5, RT): 8000 µg/mL
solubility ([5]; MCT and alcohols in water), aqueous with cosolvent or surfactant or cyclodextrin, vehicle % wt in water: lecithin 25, MCT 15, benzyl alcohol 4.5, ethanol 6.5, emulsion, opaque, pH 4.5-5, RT): 19800 µg/mL
solubility ([5]; alcohol solution (benzyl alcohol and ethanol in water), pH 4.5, aqueous with cosolvent or surfactant or cyclodextrin): 1100 µg/mL
solubility ([5]; aqueous with cosolvent or surfactant or cyclodextrin, vehicle % wt in water: MCT 15, emulsion, opaque, pH 4.5-5, RT): 500 µg/mL
solubility ([5]; aqueous with cosolvent or surfactant or cyclodextrin, vehicle % wt in water: glycocholic acid 10.6, micelle solution, hazy, pH 4.5-5, RT): 2100 µg/mL
solubility ([5]; aqueous with cosolvent or surfactant or cyclodextrin, vehicle % wt in water: lecithin 25, glycocholic acid 10.6, benzyl alcohol 4.5, ethanol 6.5, micelle solution, hazy, pH 4.5-5, RT): 8000 µg/mL
solubility ([5]; aqueous with cosolvent or surfactant or cyclodextrin, vehicle % wt in water: lecithin 25, liposome, hazy, pH 4.5-5, RT): 800 µg/mL
solubility ([5]; emulsion (MCT and alcohols in water), aqueous with cosolvent or surfactant or cyclodextrin, vehicle % wt in water: MCT 15, benzyl alcohol 4.5, ethanol 6.5, emulsion, opaque, pH 4.5-5, RT): 19400 µg/mL
solubility ([5]; emulsion (glycocholic acid and MCT in water), aqueous with cosolvent or surfactant or cyclodextrin, vehicle % wt in water: glycocholic acid 10.6, MCT 15, emulsion, opaque, pH 4.5-5, RT): 3100 µg/mL
solubility ([5]; emulsion (lecithin and MCT in water), aqueous with cosolvent or surfactant or cyclodextrin, vehicle % wt in water: lecithin 25, MCT 15, emulsion, opaque, pH 4.5-5, RT): 1400 µg/mL
solubility ([5]; liposome (lecithin and alcohols in water), aqueous with cosolvent or surfactant or cyclodextrin, vehicle % wt in water: lecithin 25, benzyl alcohol 4.5, ethanol 6.5, liposome, hazy, pH 4.5-5, RT): 13700 µg/mL
solubility ([5]; micelle solution (glycocholic acid and alcohols in water), aqueous with cosolvent or surfactant or cyclodextrin, vehicle % wt in water: glycocholic acid 10.6, benzyl alcohol 4.5, ethanol 6.5, micelle solution, hazy, pH 4.5-5, RT): 7600 µg/mL
solubility ([5]; micelle solution (lecithin and glycocholic acid in water), aqueous with cosolvent or surfactant or cyclodextrin, vehicle % wt in water: lecithin 25, glycocholic acid 10.6, micelle solution, hazy, pH 4.5-5, RT): 7100 µg/mL
pH at which most stable in an aqueous solution [6]: ~4
solubility [1]: 20000 µg/mL (≈ 57.3 mM)
Solubility increase over water (physchem): 86 folds
Appearance of the undiluted solutions (physchem; 20 mg/mL added to F145V): Clear & one-phase solution
Appearance of the solutions after being diluted in an IV infusion fluid (physchem; 20 mg/mL in F145V): Clear & one-phase solution
Appearance of the undiluted solutions (physchem; 30 mg/mL added to F145V): Clear & one-phase solution
Appearance of the solutions after being diluted in an IV infusion fluid (physchem; 30 mg/mL in F145V): Clear & one-phase solution
Appearance of the undiluted solutions (physchem; 40 mg/mL added to F145V): Clear & one-phase solution
Appearance of the solutions after being diluted in an IV infusion fluid (physchem; 40 mg/mL in F145V): Slight precipitation
Appearance of the undiluted solutions (physchem; 50 mg/mL added to F145V): Clear & one-phase solution
Appearance of the solutions after being diluted in an IV infusion fluid (physchem; 50 mg/mL in F145V): Major precipitation
Appearance of the undiluted solutions (physchem; 60 mg/mL added to F145V): Clear & one-phase solution
Appearance of the solutions after being diluted in an IV infusion fluid (physchem; 60 mg/mL in F145V): Major precipitation
solubility at 24 h (physchem; aqueous with cosolvent or surfactant or cyclodextrin): ≥ 60000 µg/mL
solubility [3]: 8600 µg/mL (≈ 24.6 mM)
Compound: C[C@@H](c1ncncc1F)[C@](O)(Cn1cncn1)c1ccc(F)cc1F [Voriconazole]
Solubility according to USP definition [2]: Insoluble
Solubility in water ([2]; water, 25° C.): about 0.7 mg/mL
Reported solubility in water ([2]; water): 0.7 mg/mL

Compound: Casein
Solubility according to USP definition [2]: Very poorly
Reported solubility in water ([2]; water): 0.001-0.0001 mg/mL
Measured solubility in 16% SBECD [3]: 150 µg/mL

From patent US11541006B2, “Aqueous formulation for insoluble drugs” (priority 2018, dated 2023)
